US9078446B2, “Use of N-(tetrazol-4-yl)- or N-(triazol-3-yl)arylcarboxamides or their salts for controlling unwanted plants in areas of transgenic crop plants being tolerant to HPPD inhibitor herbicides” (BAYER INTELLECTUAL PROPERTY GMBH, priority 2011, dated 2015)

Experiments:
Format in all cases: in vivo
[1] = tested on: non-transformed tobacco plants (Wt); experiment: Symptoms due to herbicide application on tobacco plants (damage classes 0-3); conditions: 25 g Al/ha, one week after application
Text: (§1) Seeds harvested from TO transformants will be put on standard soil for germination. Three weeks later plantlets (T1) will be transferred to single pots and grown under standard cultivation conditions (PCT/EP2010/070575, published as WO 2011/076889). Two weeks later, plants were sprayed with several N-(tetrazol-4-yl)- or N-(triazol-3-yl)arylcarboxamides as defined above.
(§2) Tables F1 to F5: Evaluation of the Symptoms Observed Due to the Application of the Herbicides on Transgenic Tobacco Plants, Expressing the Mutant Pseudomonas fluorescens HPPD G336W, the Avena HPPD (AvHPPD), the HPPD from Kordia algicida FMP27 or the HPPD from Blepharisma japonicum (FMP37), Compared to Non-Tranformed Tobacco Plants (“Wt”).
(§3) The herbicides (with “g Al/ha” meaning “g active ingredient/ha”) were applied on 8 to 10 plants originated from 1 to 3 independent transgenic events per transgene.
(§4) The symptoms were evaluated and classified as following: • 3=Very strong damage • 2=Strong damage • 1=Light and transient damage • 0=No damage

[2] = tested on: transgenic tobacco plants expressing Avena HPPD (AvHPPD); experiment: Symptoms due to herbicide application on transgenic tobacco plants (damage classes 0-3); conditions: 25 g Al/ha, one week after application
Text: (§5) Genes coding for the selected HPPD were obtained from a member of the group of organisms consisting of Avena sativa, Pseudomonas fluorescens mutant G336W, Blepharisma japonicum and Kordia algicida and cloned into the binary vector pBin19 allowing the integration of DNA into the tobacco genome, under the control of the CaMV35S promoter. For the cloning procedures, see A2 above for Avena sativa, see B2 above for Pseudomonas fluorescens, mutant G336W, see PCT/EP2010/070567 (published as WO 2011/076882, Example 5; for Blepharisma japonicum (FMP37) and see PCT/EP2010/070575, Example 5 for Kordia algicida (FMP27). Between the sequence corresponding to the promoter and the sequence coding for the HPPD a DNA sequence coding for a transit peptide to the chloroplast was inserted, in order to add at the N-terminal extremity of the protein a target signal to allow the localization of the HPPD protein into the plant chloroplast.
as §1, §2, §3, §4

[3] = tested on: transgenic tobacco plants expressing HPPD from Blepharisma japonicum (FMP37); experiment: as above; conditions: 25 g Al/ha, one week after application
Text: as §5, §1, §2, §3, §4

[4] = tested on: transgenic tobacco plants expressing HPPD from Kordia algicida FMP27; experiment: as above; conditions: 25 g Al/ha, one week after application
Text: as §5, §1, §2, §3, §4

[5] = tested on: transgenic tobacco plants expressing mutant Pseudomonas fluorescens HPPD G336W (PfHPPD-G336W); experiment: as above; conditions: PfHPPD-G336W line 646; 25 g Al/ha; one week after application
Text: as §5, §1, §2, §3, §4

[6] = tested on: transgenic tobacco plants expressing tolerant HPPD enzymes; experiment: Tolerance of tobacco plants expressing tolerant HPPD enzymes (all transgenes)
Text: as §5, §1, §2, §3, §4

[7] = tested on: soybean plants expressing Pseudomonas fluorescens G336W mutant, FMP 27 and FMP 37; experiment: Tolerance to HPPD inhibitors of soybean plants expressing tolerant HPPD enzymes; conditions: T1 soybean plants; one week after application
Text: Genes coding for the selected HPPD were obtained from a member of the group of organisms consisting of Blepharisma japonicum and Kordia algicida and cloned into an appropriate binary vector allowing the integration of DNA into the soybean genome, under the control of the CaMV35S promoter. For the respective cloning procedures, see WO2011076882 (PCT/EP2010/070567), Example 9; for Blepharisma japonicum (FMP37) and WO2011076889 (PCT/EP2010/070575), Example 9 for Kordia algicida (FMP27).
Between the sequence corresponding to the promoter and the sequence coding for the HPPD a DNA sequence coding for a transit peptide to the chloroplast was inserted, in order to add at the N-terminal extremity of the protein a target signal to allow the localization of the HPPD protein into the plant chloroplast. By using the vectors “pFCO112” (Blepharisma japonicum, WO2011076882), pFCO116 (Korida algicida, WO2011076889), and pFCO117” (see Example B2, above), soybean transformation was achieved as described in Example 10 of WO2011076882 (PCT/EP2010/070567) for Blepharisma japonicum (FMP37) and WO2011076889 (PCT/EP2010/070575) for Kordia algicida (FMP27). Seeds from TO events showing tolerance to tembotrione were harvested.
T1 Soybean seeds were transferred to single pots and grown under standard cultivation conditions, see WO2011076882.
Two weeks later, plants will be sprayed with several N-(tetrazol-4-yl)- or N-(triazol-3-yl)arylcarboxamides as defined above.

Cc1c(C(=O)Nc2nnnn2C)ccc(C(F)(F)F)c1S(C)(=O)=O [Compound 4-137]
number of plants with Damage 0 (No damage) [1]: 0
number of plants with Damage 1 (Light and transient damage) [1]: 0
number of plants with Damage 2 (Strong damage) [1]: 0
number of plants with Damage 3 (Very strong damage) [1]: 10
number of plants with Damage 0 (No damage) ([2]; AvHPPD line 656): 3
number of plants with Damage 1 (Light and transient damage) ([2]; AvHPPD line 656): 1
number of plants with Damage 2 (Strong damage) ([2]; AvHPPD line 656): 1
number of plants with Damage 3 (Very strong damage) ([2]; AvHPPD line 656): 5
number of plants with Damage 0 (No damage) ([2]; AvHPPD line 659): 3
number of plants with Damage 1 (Light and transient damage) ([2]; AvHPPD line 659): 3
number of plants with Damage 2 (Strong damage) ([2]; AvHPPD line 659): 0
number of plants with Damage 3 (Very strong damage) ([2]; AvHPPD line 659): 4
number of plants with Damage 0 (No damage) ([2]; AvHPPD line 699): 1
number of plants with Damage 1 (Light and transient damage) ([2]; AvHPPD line 699): 2
number of plants with Damage 2 (Strong damage) ([2]; AvHPPD line 699): 0
number of plants with Damage 3 (Very strong damage) ([2]; AvHPPD line 699): 7
number of plants with Damage 0 (No damage) ([3]; FMP37 line 749): 8
number of plants with Damage 1 (Light and transient damage) ([3]; FMP37 line 749): 2
number of plants with Damage 2 (Strong damage) ([3]; FMP37 line 749): 0
number of plants with Damage 3 (Very strong damage) ([3]; FMP37 line 749): 0
number of plants with Damage 0 (No damage) ([3]; FMP37 line 754): 0
number of plants with Damage 1 (Light and transient damage) ([3]; FMP37 line 754): 1
number of plants with Damage 2 (Strong damage) ([3]; FMP37 line 754): 1
number of plants with Damage 3 (Very strong damage) ([3]; FMP37 line 754): 8
number of plants with Damage 0 (No damage) ([3]; FMP37 line 795): 2
number of plants with Damage 1 (Light and transient damage) ([3]; FMP37 line 795): 0
number of plants with Damage 2 (Strong damage) ([3]; FMP37 line 795): 2
number of plants with Damage 3 (Very strong damage) ([3]; FMP37 line 795): 6
number of plants with Damage 0 (No damage) ([4]; FMP27 line 733): 4
number of plants with Damage 1 (Light and transient damage) ([4]; FMP27 line 733): 0
number of plants with Damage 2 (Strong damage) ([4]; FMP27 line 733): 1
number of plants with Damage 3 (Very strong damage) ([4]; FMP27 line 733): 5
number of plants with Damage 0 (No damage) ([4]; FMP27 line 734): 5
number of plants with Damage 1 (Light and transient damage) ([4]; FMP27 line 734): 2
number of plants with Damage 2 (Strong damage) ([4]; FMP27 line 734): 0
number of plants with Damage 3 (Very strong damage) ([4]; FMP27 line 734): 3
number of plants with Damage 0 (No damage) ([4]; FMP27 line 735): 3
number of plants with Damage 1 (Light and transient damage) ([4]; FMP27 line 735): 0
number of plants with Damage 2 (Strong damage) ([4]; FMP27 line 735): 4
number of plants with Damage 3 (Very strong damage) ([4]; FMP27 line 735): 3
number of plants with Damage 0 (No damage) [5]: 5
number of plants with Damage 1 (Light and transient damage) [5]: 2
number of plants with Damage 2 (Strong damage) [5]: 0
number of plants with Damage 3 (Very strong damage) [5]: 3
tolerance of the transgenic tobacco plants (symptoms due to application of the herbicide) ([6]; T1 plants sprayed, evaluated one week after application): good tolerance
sensitivity of transgenic tobacco plants compared to wild type (wt) plants ([6]; all tested independent lines, agronomically relevant dose): less sensitive
tolerance of transgenic plants compared to the wild-type soybean plants [7]: superior tolerance
